US11957759B1, “Rapidly accelerated fibrosarcoma (RAF) degrading compounds and associated methods of use” (Arvinas Operations, Inc., priority 2022, dated 2024)

Legend:
B-RAF V600E = target: T1, B-RAF V600E (Homo sapiens, UniProt P15056, V600E); assay: Target protein degradation, assay C: T-Rex 293 cells, HA-BRAF_V600E, 384 well format; format: cell-based; conditions: T-Rex 293 HA-BRAF_V600E cells, 24 hours, Examples 83-269; for DC50: Assay C; for Dmax: T-REx-293, Assay C
T1 construct: expressed in transfected cells; host or cells: T-Rex 293 cells (Invitrogen #R71007)
T1 sequence (P15056 whole entry V600E): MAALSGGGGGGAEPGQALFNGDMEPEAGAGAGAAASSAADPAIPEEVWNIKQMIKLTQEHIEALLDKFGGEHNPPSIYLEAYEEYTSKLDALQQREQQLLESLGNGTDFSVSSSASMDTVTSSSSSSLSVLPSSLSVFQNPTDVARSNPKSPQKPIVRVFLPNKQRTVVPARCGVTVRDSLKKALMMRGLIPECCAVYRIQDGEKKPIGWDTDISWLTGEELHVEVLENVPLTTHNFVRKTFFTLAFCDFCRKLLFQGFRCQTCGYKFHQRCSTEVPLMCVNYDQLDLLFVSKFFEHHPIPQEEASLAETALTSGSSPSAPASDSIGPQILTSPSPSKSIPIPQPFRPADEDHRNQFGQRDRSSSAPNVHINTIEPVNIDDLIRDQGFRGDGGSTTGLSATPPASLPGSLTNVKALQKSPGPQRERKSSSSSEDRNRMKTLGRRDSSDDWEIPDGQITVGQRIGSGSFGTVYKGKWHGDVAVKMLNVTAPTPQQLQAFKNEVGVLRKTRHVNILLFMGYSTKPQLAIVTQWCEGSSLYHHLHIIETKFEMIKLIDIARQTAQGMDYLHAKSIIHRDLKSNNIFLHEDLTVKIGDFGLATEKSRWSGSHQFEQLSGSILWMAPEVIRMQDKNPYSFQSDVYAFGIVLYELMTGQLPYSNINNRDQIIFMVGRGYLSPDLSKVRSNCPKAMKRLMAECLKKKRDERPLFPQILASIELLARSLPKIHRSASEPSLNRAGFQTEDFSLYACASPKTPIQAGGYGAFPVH
Procedure, shortened: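 T-Rex 293 cells stably expressing doxycycline-induced (1 ng/mL) HA-BRAF V600E were treated 24 h at 37 °C with compound (300 nM–5 pM, 11 points, 0.5% DMSO). HA immunofluorescence was quantified by high-content imaging to give DC50 and Dmax (% of control); nuclei counts versus DMSO gauged toxicity.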

B-RAF G466V = target: T2, B-RAF G466V (Homo sapiens, UniProt P15056, G466V); assay: Target protein degradation, assay D: T-Rex 293 cells, HA-BRAF_G466V, 384 well format; format: cell-based; conditions: T-Rex 293 HA-BRAF_G466V cells, 24 hours, Examples 83-269; for Dmax: T-REx-293, Assay D
T2 construct: expressed in transfected cells; host or cells: T-Rex 293 cells (Invitrogen #R71007)
T2 sequence (P15056 whole entry G466V): as the sequence (P15056 whole entry V600E) above, with G466V, E600V counted along it
Procedure, shortened: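 T-Rex 293 cells stably expressing doxycycline-induced (1 ng/mL) HA-BRAF G466V treated 24 h at 37 °C with PROTACs, 11-point 1:3 dilution, 300 nM to 5 pM final, 0.5% DMSO. Fixed cells immunostained for HA and imaged by high-content microscopy; DC50 and Dmax (% of control) derived, toxicity from nuclei counts versus DMSO.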

N#Cc1c(NS(=O)(=O)N2CC[C@@H](F)C2)ccc(F)c1Oc1ccc2ncn(-c3cccc(C4CCN(CC5CN(c6ccc7c(c6)CN([C@H]6CCC(=O)NC6=O)C7=O)C5)CC4)c3)c(=O)c2c1 [Example 255, (3R)-N-(2-cyano-3-{[3-(3-{1-[(1-{2-[(3S)-2,6-dioxopiperidin-3-yl]-1-oxo-2,3-dihydro-1H-isoindol-5-yl}azetidin-3-yl)methyl]piperidin-4-yl}phenyl)-4-oxo-3,4-dihydroquinazolin-6-yl]oxy}-4-fluorophenyl)-3-fluoropyrrolidine-1-sulfonamide]
DC50 (B-RAF V600E): 50 to 500 nM
Dmax (B-RAF V600E): 35 to 70%
DC50 (B-RAF G466V; Assay D): 1 to 10 nM
Dmax (B-RAF G466V): ≥ 70%

N#Cc1c(NS(=O)(=O)N2CC[C@@H](F)C2)ccc(F)c1Oc1ccc2ncn(C3COC4(CCN(C(=O)CC5(O)CCN(c6ccc7c(c6)CN([C@H]6CCC(=O)NC6=O)C7=O)CC5)CC4)C3)c(=O)c2c1 (stereo partly drawn) [Example 180, (3R)—N-{2-cyano-3-[(3-{8-[2-(1-{2-[(3S)-2,6-dioxopiperidin-3-yl]-1-oxo-2,3-dihydro-1H-isoindol-5-yl}-4-hydroxypiperidin-4-yl)acetyl]-1-oxa-8-azaspiro[4.5]decan-3-yl}-4-oxo-3,4-dihydroquinazolin-6-yl)oxy]-4-fluorophenyl}-3-fluoropyrrolidine-1-sulfonamide]
DC50 (B-RAF V600E): 50 to 500 nM
Dmax (B-RAF V600E): 35 to 70%
DC50 (B-RAF G466V; Assay D): > 30 nM
Dmax (B-RAF G466V): 35 to 70%

CN(CC1CCN(c2ccc(-n3cnc4ccc(Oc5c(F)ccc(NS(=O)(=O)N6CC[C@@H](F)C6)c5C#N)cc4c3=O)cc2)CC1)[C@H]1C[C@@H](Oc2ccc3c(c2)CN([C@H]2CCC(=O)NC2=O)C3=O)C1 [Example 206, (3R)-N-{2-cyano-4-fluoro-3-[(3-{4-[4-({methyl[(1r,3r)-3-({2-[(3S)-2,6-dioxopiperidin-3-yl]-1-oxo-2,3-dihydro-1H-isoindol-5-yl}oxy)cyclobutyl]amino}methyl)piperidin-1-yl]phenyl}-4-oxo-3,4-dihydroquinazolin-6-yl)oxy]phenyl}-3-fluoropyrrolidine-1-sulfonamide]
DC50 (B-RAF V600E): 50 to 500 nM
Dmax (B-RAF V600E): ≥ 70%
DC50 (B-RAF G466V; Assay D): 1 to 10 nM
Dmax (B-RAF G466V): ≤ 35%

N#Cc1c(NS(=O)(=O)N2CC[C@@H](F)C2)ccc(F)c1Oc1ccc2ncn(-c3cnc(N4CCC(CN5CCC6(CC5)CN(c5cccc7c5CN(C5CCC(=O)NC5=O)C7=O)C6)CC4)nc3)c(=O)c2c1 (stereo partly drawn) [Example 131, (3R)-N-{2-cyano-3-[(3-{2-[4-({2-[2-(2,6-dioxopiperidin-3-yl)-1-oxo-2,3-dihydro-1H-isoindol-4-yl]-2,7-diazaspiro[3.5]nonan-7-yl}methyl)piperidin-1-yl]pyrimidin-5-yl}-4-oxo-3,4-dihydroquinazolin-6-yl)oxy]-4-fluorophenyl}-3-fluoropyrrolidine-1-sulfonamide]
DC50 (B-RAF V600E): 50 to 500 nM
Dmax (B-RAF V600E): 35 to 70%
DC50 (B-RAF G466V; Assay D): 1 to 10 nM
Dmax (B-RAF G466V): ≤ 35%

N#Cc1c(NS(=O)(=O)N2CC[C@@H](F)C2)ccc(F)c1Oc1ccc2ncn(-c3cnc(C4(N5CCN(CC6CCN(c7ccc(C8CCC(=O)NC8=O)cc7F)CC6)CC5)CC4)nc3)c(=O)c2c1 (stereo partly drawn) [Example 106, (3R)-N-(2-cyano-3-{[3-(2-{1-[4-({1-[4-(2,6-dioxopiperidin-3-yl)-2-fluorophenyl]piperidin-4-yl}methyl)piperazin-1-yl]cyclopropyl}pyrimidin-5-yl)-4-oxo-3,4-dihydroquinazolin-6-yl]oxy}-4-fluorophenyl)-3-fluoropyrrolidine-1-sulfonamide]
DC50 (B-RAF V600E): 50 to 500 nM
Dmax (B-RAF V600E): 35 to 70%
DC50 (B-RAF G466V; Assay D): 1 to 10 nM
Dmax (B-RAF G466V): ≤ 35%

N#Cc1c(NS(=O)(=O)N2CC[C@@H](F)C2)ccc(F)c1Oc1ccc2ncn(-c3ccc(N4CCC(CN5CC6(CC(c7ccc8c(c7)CN(C7CCC(=O)NC7=O)C8=O)C6)C5)CC4)cc3)c(=O)c2c1 (stereo partly drawn) [Example 182, (3R)-N-{2-cyano-3-[(3-(4-[4-({6-[2-(2,6-dioxopiperidin-3-yl)-1-oxo-2,3-dihydro-1H-isoindol-5-yl]-2-azaspiro[3.3]heptan-2-yl}methyl)piperidin-1-yl]phenyl}-4-oxo-3,4-dihydroquinazolin-6-yl)oxy]-4-fluorophenyl}-3-fluoropyrrolidine-1-sulfonamide]
DC50 (B-RAF V600E): 50 to 500 nM
Dmax (B-RAF V600E): ≤ 35%
DC50 (B-RAF G466V; Assay D): 1 to 10 nM
Dmax (B-RAF G466V): 35 to 70%

N#Cc1c(NS(=O)(=O)N2CC[C@@H](F)C2)ccc(F)c1Oc1ccc2ncn(-c3ccc(N4CCN(C(=O)C5CCN(c6ccc7c(c6)CN(C6CCC(=O)NC6=O)C7=O)CC5)CC4)cc3)c(=O)c2c1 (single isomer, unassigned) [Example 242, (3R)-N-{2-cyano-3-[(3-(4-[4-(1-{2-[(3R*)-2,6-dioxopiperidin-3-yl]-1-oxo-2,3-dihydro-1H-isoindol-5-yl}piperidine-4-carbonyl)piperazin-1-yl]phenyl}-4-oxo-3,4-dihydroquinazolin-6-yl)oxy]-4-fluorophenyl}-3-fluoropyrrolidine-1-sulfonamide]
DC50 (B-RAF V600E): > 500 nM
B-RAF G466V DMax (%) (B-RAF G466V; Assay D): C (C ≤ 35)
DC50 (B-RAF G466V; Assay D): 10 to 30 nM

N#Cc1c(NS(=O)(=O)N2CC[C@@H](F)C2)ccc(F)c1Oc1ccc2ncn(-c3cnc(C4(N5CCN(CC6CN(c7ccc(C8CCC(=O)NC8=O)cc7F)C6)CC5)CC4)nc3)c(=O)c2c1 (stereo partly drawn) [Example 105, (3R)-N-(2-cyano-3-{[3-(2-{1-[4-({1-[4-(2,6-dioxopiperidin-3-yl)-2-fluorophenyl]azetidin-3-yl}methyl)piperazin-1-yl]cyclopropyl}pyrimidin-5-yl)-4-oxo-3,4-dihydroquinazolin-6-yl]oxy}-4-fluorophenyl)-3-fluoropyrrolidine-1-sulfonamide]
DC50 (B-RAF V600E): 5 to 50 nM
Dmax (B-RAF V600E): 35 to 70%
DC50 (B-RAF G466V; Assay D): 1 to 10 nM
Dmax (B-RAF G466V): ≤ 35%

N#Cc1c(NS(=O)(=O)N2CC[C@@H](F)C2)ccc(F)c1Oc1ccc2ncn(-c3cnc(N4CCN(c5ccc6c(c5)CN(C5CCC(=O)NC5=O)C6=O)CC4)nc3)c(=O)c2c1 (stereo partly drawn) [Example 127, (3R)-N-(2-cyano-3-{[3-(2-{4-[2-(2,6-dioxopiperidin-3-yl)-1-oxo-2,3-dihydro-1H-isoindol-5-yl]piperazin-1-yl}pyrimidin-5-yl)-4-oxo-3,4-dihydroquinazolin-6-yl]oxy}-4-fluorophenyl)-3-fluoropyrrolidine-1-sulfonamide]
DC50 (B-RAF V600E): 50 to 500 nM
Dmax (B-RAF V600E): 35 to 70%
DC50 (B-RAF G466V; Assay D): > 30 nM

Cc1c(N2CCC(CN3CCN(c4ccc(-n5cnc6ccc(Oc7c(F)ccc(NS(=O)(=O)N8CC[C@@H](F)C8)c7C#N)cc6c5=O)cc4)CC3)CC2)ccc2c1CN(C1CCC(=O)NC1=O)C2=O (single isomer, unassigned) [Example 113, (3R)-N-(2-cyano-3-{[3-(4-{4-[(1-{2-[(3R*)-2,6-dioxopiperidin-3-yl]-4-methyl-1-oxo-2,3-dihydro-1H-isoindol-5-yl}piperidin-4-yl)methyl]piperazin-1-yl}phenyl)-4-oxo-3,4-dihydroquinazolin-6-yl]oxy}-4-fluorophenyl)-3-fluoropyrrolidine-1-sulfonamide]
DC50 (B-RAF V600E): 50 to 500 nM
DC50 (B-RAF G466V; Assay D): 1 to 10 nM

N#Cc1c(NS(=O)(=O)N2CC[C@@H](F)C2)ccc(F)c1Oc1ccc2ncn(-c3ccc(N4CCN(CC5CCN(c6ccc(N7CCC(=O)NC7=O)c(F)c6)CC5)CC4)nc3)c(=O)c2c1 [Example 142, (3R)-N-{2-cyano-3-[(3-{6-[4-({1-[4-(2,4-dioxo-1,3-diazinan-1-yl)-3-fluorophenyl]piperidin-4-yl}methyl)piperazin-1-yl]pyridin-3-yl}-4-oxo-3,4-dihydroquinazolin-6-yl)oxy]-4-fluorophenyl}-3-fluoropyrrolidine-1-sulfonamide]
DC50 (B-RAF V600E): 5 to 50 nM
Dmax (B-RAF V600E): 35 to 70%
DC50 (B-RAF G466V; Assay D): ≤ 1 nM
Dmax (B-RAF G466V): ≤ 35%

N#Cc1c(NS(=O)(=O)N2CC[C@@H](F)C2)ccc(F)c1Oc1ccc2ncn(-c3cnc(C4(N5CCN(CC6CN(c7ccc8c(c7)CN(C7CCC(=O)NC7=O)C8=O)C6)CC5)CC4)nc3)c(=O)c2c1 (stereo partly drawn) [Example 99, (3R)-N-(2-cyano-3-{[3-(2-{1-[4-({1-[2-(2,6-dioxopiperidin-3-yl)-1-oxo-2,3-dihydro-1H-isoindol-5-yl]azetidin-3-yl}methyl)piperazin-1-yl]cyclopropyl}pyrimidin-5-yl)-4-oxo-3,4-dihydroquinazolin-6-yl]oxy}-4-fluorophenyl)-3-fluoropyrrolidine-1-sulfonamide]
DC50 (B-RAF V600E): 50 to 500 nM
Dmax (B-RAF V600E): 35 to 70%
DC50 (B-RAF G466V; Assay D): 1 to 10 nM
Dmax (B-RAF G466V): 35 to 70%

CN(c1ccc2c(c1)CN([C@H]1CCC(=O)NC1=O)C2=O)[C@H]1CC[C@H](N2CCN(c3ccc(-n4cnc5ccc(Oc6c(F)ccc(NS(=O)(=O)N7CC[C@@H](F)C7)c6C#N)cc5c4=O)cc3)CC2)CC1 [Example 231, (3R)-N-(2-cyano-4-fluoro-3-{[4-oxo-3-(4-(4-[(1s,4s)-4-({2-[(3S)-2,6-dioxopiperidin-3-yl]-1-oxo-2,3-dihydro-1H-isoindol-5-yl}(methyl)amino)cyclohexyl]piperazin-1-yl}phenyl)-3,4-dihydroquinazolin-6-yl]oxy}phenyl)-3-fluoropyrrolidine-1-sulfonamide]
DC50 (B-RAF V600E): 50 to 500 nM
Dmax (B-RAF V600E): 35 to 70%
DC50 (B-RAF G466V; Assay D): 1 to 10 nM
Dmax (B-RAF G466V): 35 to 70%
